What was measured:
INS-1E cells [1] = experiment: Cellular ATP levels (CellTiter-Glo) in cytokine-treated INS-1E cells; suppression of cytokine-induced beta-cell apoptosis; format: cell-based, rat; conditions: INS-1E cells, cytokines IL-1β, IFN-γ, TNF-α, 48 h, CellTiter-Glo; read-out: CTG EC50 in HTS
Procedure: The compounds were analyzed for activity utilizing methods described in Chou et al. (ACS Chem. Biol. 2010 Aug. 20; 5(8):729-34).
INS-1E cells were seeded at 10,000 cells per well using a Multidrop Combi (Thermo Labsystems) in white optical 384-well plates (Corning Life Sciences). After overnight incubation, medium was removed and 50 μL of RPMI containing 1% FBS and a combination of cytokines (10 ng mL-^1 IL-1β, 50 ng mL^−1 IFN-γ, 25 ngmL^−1 TNF-α) was added to every well. Using libraries of compounds dissolved in DMSO and a CyBi-Well pin-transfer robot (CyBio Corp.), 0.1 μL of each compound was added. After 48 h, medium was removed and 20 μL of CellTiter-Glo reagent was added. Luminescence was measured after 10 min of incubation using an EnVision plate reader (PerkinElmer).
Instrument output files were processed using Pipeline Pilot (Accelrys) and input to MATLAB (The MathWorks) for data normalization. Compound performance scores relative to a distribution of mock-treated (DMSO) wells were calculated using a revised version of the scoring system underlying ChemBank. (Seiler et al., Nucleic Acids Res. 36, D351-359, 2008). The role of replicate treatments was further developed as follows: first, mock-treatment distributions were modeled using all mock-treated wells measured on a single day, regardless of their nominal replicate; second, per-compound scores weighted each in-plate background-subtracted measurement by the uncertainty in that measurement, using the method of maximum likelihood. The uncertainty in a single background-subtracted measurement was estimated using the number of mock-treated wells on the plate and, as a measure of the assay noise, the standard deviation of the per-day mock-treatment distribution. The signal, a weighted average of differences, was scaled by the noise, the standard deviation of the mock treatment distribution.
INS-1E cells were seeded at 10,000 cells/well using a Multidrop Combi (Thermo Labsystems) in white optical 384-well plates (Corning Life Sciences). After overnight incubation, medium was removed and 50 μL RPMI containing the treated compound, 1% FBS and a combination of cytokines (10 ng/mL IL-1β, 50 ng/mL IFN-γ, 25 ng/mL TNF-α) was added to every well. After incubation for 48 hr, medium was removed and 20 μL CellTiter-Glo reagent was added. Luminescence was measured after 10-min incubation using an EnVision plate reader (PerkinElmer).

INS-1E cells [2] = experiment: Caspase-3 activity assay (Caspase-Glo 3/7) in cytokine-treated INS-1E cells; format: cell-based, rat; conditions: cytokines, 48 h, Caspase-Glo 3/7
Procedure: INS-1E cells were seeded at 5,000 cells per well in white optical 384-well plates and treated as described for highthroughput screening. After treatment with cytokines and compounds for 48 h, medium was removed and 20 μL Caspase-Glo 3/7 reagent was added. Luminescence was measured after 2 h of incubation using an EnVision plate reader.

beta cells = conditions: HDAC inhibition, presumably by decreasing NF-κB transactivation; cited from earlier work

Question: With COc1ccc(S(=O)(=O)N(C)C[C@@H]2Oc3c(NC(=O)c4cccc5ccccc45)cccc3C(=O)N([C@@H](C)CO)C[C@H]2C)cc1 [Compound 35A] as the compound, how does the EC50 (INS-1E cells [1]) read?
Answer: > 25 µM

Question: And the EC50 (INS-1E cells [2])?
Answer: > 25 µM

Question: Which results are given for C[C@@H]1CN([C@@H](C)CO)C(=O)c2cccc(NC(=O)Nc3cccc4ccccc34)c2O[C@H]1CN(C)S(=O)(=O)c1cn(C)cn1 [Compound 36A]?
Answer: EC50 (INS-1E cells [1]): > 25 µM; EC50 (INS-1E cells [2]): > 25 µM

Question: For Cc1ccc(S(=O)(=O)N(C)C[C@@H]2Oc3c(NC(=O)Nc4ccc(F)cc4)cccc3C(=O)N([C@@H](C)CO)C[C@H]2C)cc1 [Compound 37A], which EC50 (INS-1E cells [1]) is on record?
Answer: > 25 µM

Question: What about the EC50 (INS-1E cells [2]) of the same compound?
Answer: > 25 µM

Question: What does the source list for C[C@@H]1CN([C@@H](C)CO)C(=O)c2cccc(NC(=O)Nc3ccc(F)cc3)c2O[C@H]1CN(C)S(=O)(=O)c1ccc(F)cc1 [Compound 38A]?
Answer: EC50 (INS-1E cells [1]): > 25 µM; EC50 (INS-1E cells [2]): > 25 µM

Question: For COc1ccc(S(=O)(=O)N(C)C[C@@H]2Oc3c(NC(=O)Nc4cccc(-c5ncccn5)c4)cccc3C(=O)N([C@@H](C)CO)C[C@H]2C)cc1 [Compound 39A], which EC50 (INS-1E cells [1]) is on record?
Answer: > 25 µM

Question: What about the EC50 (INS-1E cells [2]) of the same compound?
Answer: > 25 µM

Question: What does the source list for COc1ccc(S(=O)(=O)N(C)C[C@@H]2Oc3c(NC(=O)Nc4cccc(-c5ccccc5)c4)cccc3C(=O)N([C@@H](C)CO)C[C@H]2C)cc1 [Compound 40A]?
Answer: EC50 (INS-1E cells [1]): > 25 µM; EC50 (INS-1E cells [2]): > 25 µM

Question: For COc1ccc(S(=O)(=O)N(C)C[C@@H]2Oc3c(NC(=O)Nc4cc(F)ccc4F)cccc3C(=O)N([C@@H](C)CO)C[C@H]2C)cc1 [Compound 41A], which EC50 (INS-1E cells [1]) is on record?
Answer: > 25 µM

Question: What about the EC50 (INS-1E cells [2]) of the same compound?
Answer: > 25 µM

Question: For COc1ccc(S(=O)(=O)N(C)C[C@@H]2Oc3c(NC(=O)Nc4cccc(C(F)(F)F)c4)cccc3C(=O)N([C@@H](C)CO)C[C@H]2C)cc1 [Compound 42A], which EC50 (INS-1E cells [1]) is on record?
Answer: > 25 µM

Question: And the EC50 (INS-1E cells [2])?
Answer: > 25 µM

Question: For COc1ccc(S(=O)(=O)N(C)C[C@@H]2Oc3c(NC(=O)Nc4cccc5c4CCCC5)cccc3C(=O)N([C@@H](C)CO)C[C@H]2C)cc1 [Compound 43A], which EC50 (INS-1E cells [1]) is on record?
Answer: > 25 µM

Question: What about the EC50 (INS-1E cells [2]) of the same compound?
Answer: > 25 µM

Question: Which EC50 (INS-1E cells [1]) does the source give for COc1ccc(S(=O)(=O)N(C)C[C@@H]2Oc3c(NC(=O)Nc4ccc5occc5c4)cccc3C(=O)N([C@@H](C)CO)C[C@H]2C)cc1 [Compound 44A] here?
Answer: > 25 µM

Question: And the EC50 (INS-1E cells [2])?
Answer: > 25 µM

Question: Which EC50 (INS-1E cells [1]) does the source give for COc1ccc(S(=O)(=O)N(C)C[C@@H]2Oc3c(NC(=O)Nc4cccc5c4CC(C)(C)O5)cccc3C(=O)N([C@@H](C)CO)C[C@H]2C)cc1 [Compound 46A] here?
Answer: > 25 µM

Question: And the EC50 (INS-1E cells [2])?
Answer: > 25 µM

Question: Which EC50 (INS-1E cells [1]) does the source give for COc1ccc(S(=O)(=O)N(C)C[C@@H]2Oc3c(NC(=O)Nc4ccc5c(c4)OCCO5)cccc3C(=O)N([C@@H](C)CO)C[C@H]2C)cc1 [Compound 47A] here?
Answer: > 25 µM

Question: What about the EC50 (INS-1E cells [2]) of the same compound?
Answer: > 25 µM

Question: For COc1ccc(S(=O)(=O)N(C)C[C@@H]2Oc3c(NC(=O)Nc4cc(F)cc5c4OCOC5)cccc3C(=O)N([C@@H](C)CO)C[C@H]2C)cc1 [Compound 48A], which EC50 (INS-1E cells [1]) is on record?
Answer: > 25 µM

Question: What about the EC50 (INS-1E cells [2]) of the same compound?
Answer: > 25 µM

Question: With O=C(CCCCCCC(=O)Nc1ccccc1)NO [SAHA, suberoylanilide hydroxamic acid] as the compound, how does the cytokine-induced beta-cell death (beta cells) read?
Answer: can prevent cytokine-induced beta-cell death

Question: With CC(/C=C/C(=O)NO)=C\[C@@H](C)C(=O)c1ccc(N(C)C)cc1 [TSA, trichostatin A] as the compound, how does the cytokine-induced beta-cell death (beta cells) read?
Answer: can prevent cytokine-induced beta-cell death
